Earlier results, collected in patent US20150209327A1, “METHODS FOR THE TREATMENT OF OBESITY USING APREMILAST” (Celgene Corporation, priority 2014, published 2015).

Settings: treatment of COPD; cited from earlier work

Question: For `O=C(Nc1c(Cl)cncc1Cl)c1ccc(OC(F)F)c(OCC2CC2)c1` [roflumilast], which “weight change as a side effect” value is on record?
Answer: Weight decrease was observed
